A short description of the series: Delivery and clearance of fluorescent molecule in suprachoroidal space of live rabbits. Format: in vivo. Particulars: live rabbit. The method, then: The delivery of a fluorescent molecule (sodium fluorescein) to the suprachoroidal space was evaluated using rabbits according to approved live animal experimental protocols. A one dimensional scan of the eye (through line of sight) was taken within the first five minutes after injection to determine the dispersion of the fluorescent molecule in the eye (FIG. 14). The y-axis indicates the fluorescent intensity (i.e., the concentration) and the x-axis represents the position in the eye from front (160) to back (0). Thus, the results illustrate that within the first 5 minutes after injection, the fluorescein had already flowed through the suprachoroidal space to the back of the eye, with some remaining at the initial insertion site.
Similar scans were taken to evaluate the rate of clearance of fluorescein from the suprachoroidal space over time (FIG. 15). The fluorescent intensity was measured in two regions of the eye (the suprachoroidal space and mid-vitreous region) over time.

`O=C1OC2(c3ccc(O)cc3Oc3cc(O)ccc32)c2ccccc21` [sodium fluorescein]: under “fluorescent intensity over time”, the “Distribution suprachoroidal space vs mid-vitreous region” value was “remains in the suprachoroidal space without passing into the mid-vitreous region”. Further, the “Time to substantial clearance from the suprachoroidal space” value (suprachoroidal injection) is not above 24 h. Also, the “Time after injection by which it had flowed through the suprachoroidal space to the back of the eye” value (suprachoroidal injection, line of sight scan) is not above 5 min.

Values taken from patent publication US10905586B2, “Methods and devices for drug delivery to ocular tissue using microneedle” (Emory University, priority 2006, dated 2021).
